# Assay results: US6884818B1, “Pharmaceutical compositions containing 8-chloro-3 (β-diethylaminoethyl)-4-methyl-7-ethoxycarbonylmethoxy coumarin base and the salts thereof with cholesterol-lowering activity” (Fidia Farmaceutici S.p.A., priority 1999, dated 2005)
# Legend:
# [1] = system: hypercholesterolaemic-diabetic rabbits; assay: Test No. 1: tolerability and cholesterol-lowering effect in rabbits on 1% cholesterol diet with alloxan-induced diabetes; type: in vivo, rabbit; conditions: for body weight curve: treated chronically for 4-5 weeks, weighed weekly, versus untreated control group (FIG. 1)
# Protocol: A preliminary experiment was performed to assess the ability of cloricromene to reduce plasma levels of cholesterol and triglycerides in rabbits fed on a high-fat diet, treated chronically for 4-5 weeks. As reference product we used scoparone, as it is the only coumarin derivative of vegetable origin with a documented effect on these parameters.
# The experimental model induces high levels of cholesterol and triglycerides in the plasma by a 1% cholesterol-enriched diet, simultaneously inducing diabetes by injection of alloxan, a highly toxic product for the β cells of the pancreas. In this way, it is possible to reach very high values of cholesterol and triglycerides in the system rapidly. The body weight of the animals and the plasma levels of the test parameters were assessed weekly throughout the experiment.
# [2] = system: hypercholesterolaemic-diabetic rabbits; assay: Test No. 2: weekly cholesterol levels in rabbits with alloxan diabetes on 1% cholesterol diet; type: in vivo
# From the text: In the same experimental model, in which a diabetic pathology is induced by treating the animals with alloxan, and hypercholesterolaemia is induced by administering a 1% cholesterol diet, we monitored at weekly intervals the cholesterol levels of the rabbits, which had been divided into the following treatment groups: • 1. Control, treated with saline solution • 2. Scoparone • 3. Cloricromene
# [3] = system: rabbits on a high-cholesterol diet; assay: Test No. 3: cholesterol levels in rabbits on 0.1% cholesterol diet without diabetes; type: in vivo, rabbit; conditions: cholesterol around 250 mg/dl, versus control group and scoparone group (FIG. 3)
# Protocol: As further confirmation of this interesting result, we prepared another experimental model. In this case, hypercholesterolaemia was induced in rabbit by administration of a 0.1% cholesterol diet, without simultaneously inducing diabetes. In these experimental conditions, cholesterol levels of around 250 mg/dl were obtained, that is to say, values that are compatible with the pathological situation normally observed in humans affected by hypercholesterol. The rabbits were divided into three treatment groups: controls treated with saline, a second group receiving scoparone and a third receiving cloricromene.
# [4] = system: patients with Peripheral Vascular Disease (PVD) at Fontaine stage II; assay: Multicentre, double-blind, randomised, placebo-controlled study in patients with Peripheral Vascular Disease (Fontaine stage II); type: in vivo, human
# From the text: We conducted a multicentre, double-blind, randomised study, controlled versus placebo, on 159 patients with Peripheral Vascular Disease (PVD) at Fontaine stage II, the classic symptom of which is Intermittent Claudication (IC).
# In our study, besides assessing the effect of cloricromene on IC, we also studied the cholesterol-lowering effects of the drug and the incidence of major cardiovascular events (myocardial infarction, stroke, vascular death, progression to Fontaine stages III-IV) after a treatment period of six months.
# In analysing the cholesterol-lowering effect, 117 patients were considered who presented cholesterol values at baseline of over 190 mg/dI.
# The critical value of 190 mg/dl was selected on the basis of data from the international literature that report this value as the risk threshold in pathologies such as cardiac ischaemia and atherosclerosis in general, in which excessive cholesterol represents a real risk factor. Therefore, the patients who presented cholesterol values equal to or over 190 mg/dl were considered to be at risk from said pathologies.
# For the purposes of this analysis, 58 patients were treated for 6 months with 200 mg of cloricromene per day (one capsule of 100 mg twice a day), while the remaining 59 patients were treated with placebo (Table). All the patients also took aspirin at a dose of 160 mg/day throughout the trial.
# [5] = 1% cholesterol diet + alloxan, 4-5 weeks, cloricromene group versus scoparone group
Structure (SMILES),"plasma levels of cholesterol [1, 5]","plasma levels of triglycerides [1, 5]",body weight curve ([1]; 1% cholesterol diet + alloxan),"toxic activity on repeated administration over long periods ([1]; repeated administration, in comparison to scoparone)","cholesterol levels ([2]; 1% cholesterol diet + alloxan, versus saline control and scoparone, evident from third week of treatment (FIG. 2))",cholesterol levels [3],"Cholesterol levels at week 24 ([4]; 58 patients with baseline cholesterol over 190 mg/dl, after 6 months of 200 mg cloricromene per day (100 mg capsule twice a day), plus aspirin 160 mg/day, p = 0.0035 vs week 0)","Cholesterol levels at Week 0 ([4]; 58 patients with baseline cholesterol over 190 mg/dl, baseline before 200 mg cloricromene per day, plus aspirin 160 mg/day)","difference in cholesterol between treatment groups (analysis of covariance) ([4]; cloricromene versus placebo, 6 months, p=0.04, α=0.05)","major cardiovascular events or deaths ([4]; patients, treatment period of six months)","number of animals that completed the treatment ([2]; end of experiment, scoparone group versus cloricromene group)"
"CCOC(=O)COc1ccc2c(C)c(CCN(CC)CC)c(=O)oc2c1Cl [cloricromene, 8-chloro-3(β-diethylaminoethyl)-4-methyl-7-ethoxycarbonylmethoxy coumarin]",tended to be lower,tended to be lower,superimposable on that of the control group,absolute lack of toxic activity,markedly lower than those of both the control group and that treated with scoparone,markedly lower,229 ± 32,243 ± 31,statistically significant in favour of the group treated with cloricromene,no major cardiovascular events or deaths were observed,
COc1cc2ccc(=O)oc2cc1OC [scoparone],,,marked and progressive reduction in body weight,,,,,,,,considerably lower
